Test [1] deals with Serratia marcescens. In words: Antibacterial activity against Serratia marcescens. It is filed as functional.
The test system of test [2] is Morganella morganii. In words: Antibacterial activity against Proteus morgana. In kind it is functional.
The test system of test [3] is Providencia rettgeri. In words: Antibacterial activity against Proteus rettgeri. It is filed as functional.
Test [4] deals with Klebsiella pneumoniae. In words: Antibacterial activity against Klebsiella pneumoniae. It is filed as functional.
Test [5] concerns Pasteurella multocida. In words: Antibacterial activity against Pasteurella multocida. It is filed as functional.
The subject of test [6] is Haemophilus. In words: Antibacterial activity against Haemophilus sp. In kind it is functional.
The subject of test [7] is Streptococcus pyogenes. In words: Antibacterial activity against Streptococcus hemolyticus. It is filed as functional.
The subject of test [8] is Salmonella sp. In words: Antibacterial activity against Salmonella sp. It is filed as functional.
For test [9], the system named is Herpesviridae sp. In words: Antiviral activity against Herpes simplex virus infected in mouse assessed as mouse survival at 400 mg/kg, sc for 28 days. In kind it is functional. The note with it: 672 h.
The test system of test [10] is Saccharomyces cerevisiae. In words: Antimicrobial activity against Saccharomyces cerevisiae. In kind it is functional.
In test [11] the test system is Bacillus subtilis. In words: Antibacterial activity against Bacillus subtilis. In kind it is functional.
The test system of test [12] is Pyricularia oryzae. In words: Antimicrobial activity against Pyricularia orizae. In kind it is functional.
In test [13] the test system is Proteus vulgaris. In words: Antibacterial activity against Proteus vulgaris. In kind it is functional.
For test [14], the system named is Trichophyton rubrum. In words: Antifungal activity against Trichophyton rubrum. In kind it is functional.
Test [15] relates to Trichophyton mentagrophytes. In words: Antimicrobial activity against Trichophyton mentagrophytes. In kind it is functional.
Test [16] concerns Candida albicans. In words: Antifungal activity against Candida albicans. It is filed as functional.
Test [17] relates to Colletotrichum gloeosporioides. In words: Antimicrobial activity against Glomerella cingulata. It is filed as functional.
In test [18] the test system is Cryptococcus neoformans. In words: Antimicrobial activity against Cryptococcus neoformans. In kind it is functional.
Test [19] deals with Ehrlich. In words: Antitumor activity against mouse Ehrlich carcinoma cells xenografted in white mouse assessed as growth inhibition at 50 mg/kg, ip for 7 days. Conditions: 168 h, read-out: GI. In kind it is functional.
Test [20] relates to L5178Y. In words: Cytotoxicity against mouse L5178Y cells by MTT assay. It is filed as functional, cell-based. In general terms: Formazan colour is commonly taken as a measure of viable cells.
Test [21] deals with Ehrlich. In words: Antitumor activity against mouse Ehrlich carcinoma cells xenografted in white mouse assessed as growth inhibition at 20 mg/kg, ip for 7 days. In kind it is functional. The note with it: 168 h, read-out: GI.
Test [22] has as its system MCF7. In words: Cytotoxicity against human MCF7 cells. In kind it is functional, cell-based.
For test [23], the system named is PC-3. In words: Cytotoxicity against human PC3 cells. It is filed as functional, cell-based.
The subject of test [24] is HCT-116. In words: Cytotoxicity against human HCT116 cells. It is filed as functional, cell-based.
Test [25] relates to MIA PaCa-2. In words: Cytotoxicity against human MIAPaCa2 cells. It is filed as functional, cell-based.
Test [26] concerns Candida albicans. In words: Antifungal activity against Candida albicans assessed as inhibition zone at 2 ug/disk. In kind it is functional. Conditions: read-out: IZ.
For test [27], the system named is MDA-MB-468. In words: Cytotoxicity against human MDA-MB-468 cells. In kind it is functional, cell-based.
For test [28], the system named is HL-60. In words: Cytotoxicity against human HL60 cells. It is filed as functional, cell-based.
The subject of test [29] is V79. In words: Cytotoxicity against chinese hamster V79 cells. In kind it is cell-based. The note with it: Cricetulus griseus.
Test [30] deals with Chlamydomonas reinhardtii. In words: Algicidal activity against Chlamydomonas reinhardtii IAM C-238. In kind it is functional.
The subject of test [31] is Anabaena cylindrica. In words: Growth inhibition of Anabaena cylindrica NIES 19. It is filed as functional.
Test [32] concerns Auxenochlorella pyrenoidosa. In words: Algicidal activity against Chlorella pyrenoidosa IAM C-212. It is filed as functional.
In test [33] the test system is Nostoc commune. In words: Growth inhibition of Nostoc commune NIES 24. In kind it is functional.
The subject of test [34] is Escherichia coli. In words: Antibacterial activity against Escherichia coli. It is filed as functional.
In test [35] the test system is Daucus carota. In words: Herbicidal activity against Daucus carota. It is filed as functional.
In test [36] the test system is Trichormus variabilis. In words: Growth inhibition of Anabaena variabilis NIES 23. It is filed as functional.
For test [37], the system named is Dunaliella tertiolecta. In words: Algicidal activity against Dunaliella tertiolecta ATCC 30929. It is filed as functional.
The test system of test [38] is [Chlorella] fusca. In words: Algicidal activity against Chlorella fusca IAM C-28. It is filed as functional. The note with it: Scenedesmus fuscus.
The subject of test [39] is Armoracia rusticana. In words: Herbicidal activity against Armoracia rusticana. In kind it is functional.
Test [40] deals with Catharanthus roseus. In words: Herbicidal activity against Catharanthus roseus. It is filed as functional.
For test [41], the system named is Dunaliella salina. In words: Algicidal activity against Dunaliella salina. It is filed as functional.
Test [42] concerns SK-MEL-2. In words: Cytotoxicity against human SK-MEL-2 cells. It is filed as functional. The note with it: read-out: ED50 (the source's name).
For test [43], the system named is XF498. In words: Cytotoxicity against human XF498 cells. It is filed as functional. Conditions: read-out: ED50 (the source's name).
In test [44] the test system is A549. In words: Cytotoxicity against human A549 cells. It is filed as functional. The note with it: read-out: ED50 (the source's name).
In test [45] the test system is SK-OV-3. In words: Cytotoxicity against human SKOV3 cells. It is filed as functional. The note with it: read-out: ED50 (the source's name).
For test [46], the system named is HCT-15. In words: Cytotoxicity against human HCT15 cells. It is filed as functional. Conditions: read-out: ED50 (the source's name).
The subject of test [47] is HeLa S3. In words: Cytotoxicity against human HeLaS3 cells. It is filed as functional, cell-based.
The test system of test [48] is KB. In words: Growth inhibition of human KB cells. In kind it is functional, cell-based.
Test [49] has as its system Enterobacter sp. In words: Antimicrobial activity against Enterobacter sp. It is filed as functional.
Test [50] has as its system Klebsiella sp. In words: Antimicrobial activity against Klebsiella sp. It is filed as functional.
For test [51], the system named is Citrobacter. In words: Antimicrobial activity against Citrobacter. It is filed as functional.
Test [52] has as its system Enterococcus faecalis. In words: Antimicrobial activity against Streptococcus faecalis. It is filed as functional.
Test [53] relates to Staphylococcus aureus. In words: Antibacterial activity against Staphylococcus aureus. In kind it is functional.
The test system of test [54] is Salmonella sp. In words: Antimicrobial activity against Salmonella sp. It is filed as functional.
Test [55] concerns Proteus sp. In words: Antimicrobial activity against Proteus sp. It is filed as functional. Conditions: Proteus sp. (in: enterobacteria).
In test [56] the test system is L1210. In words: Cytotoxicity against mouse L1210 cells. It is filed as functional, cell-based.

In brackets after ≈: the same amount, converted by molar mass.

Broadly, the MIC is the least concentration at which growth counts as inhibited. A low value points to inhibition by little substance. `CN1CN([C@H]2C[C@H](O)[C@@H](CO)O2)C(=O)NC1=O` showed an MIC in test [1] of 2 to 125 µg/mL (≈ 8.16 to 510 µM). The Activity in test [2], in test [3], in [4], in [5], in test [6] and in [7] was 2 to 125 µg/mL throughout. Also, the Activity in [8] fell in the range of 2 to 125 µg/mL. The survival at 400 mg/kg in test [9] came out at 50%.

As to `C1SSCSSS1`, the MIC in test [10] was found to be 6.25 µg/mL (≈ 33.2 µM); in [11], 50 µg/mL (≈ 265 µM); in [12] it was 12.5 µg/mL (≈ 66.4 µM); in test [13], 50 µg/mL (≈ 265 µM); in [14] it was 3.12 µg/mL (≈ 16.6 µM); in test [15], 3.12 µg/mL (≈ 16.6 µM). Further, the MIC in test [16] was found to be 6.25 µg/mL (≈ 33.2 µM); in test [17], 12.5 µg/mL (≈ 66.4 µM); in test [18], 6.25 µg/mL (≈ 33.2 µM).

With `COc1[nH]nc2nncnc12`, the inhibition in vivo at 50 mg/kg in test [19] stood at 83%.

As a reminder, the IC50 is the concentration that gives 50% inhibition. A low value points to higher potency. On to `Nc1nsc(C(=O)c2ccc(O)cc2)n1`, for which, in test [20], the IC50 was determined as 410 nM.

On to `COc1nnc2n(C)ncnc1-2` [PSEUDOIODININE], for which the inhibition in vivo at 20 mg/kg in test [21] came out at 64%.

As usually defined, the IC90 is the concentration at which the effect reaches the 90% level. A higher IC90 goes with weaker potency. Consider `COc1cc(CCN)c2c(c1OC)SSSSS2` [VARACIN], for which the IC50 was 1.69 nM in test [22], 0.6 nM in test [23] and 1.8 nM in test [25]. Also, in test [24], the IC90 was 0.05 µg/mL (≈ 0.147 µM). The zone of inhibition at 2 µg/disc in test [26] is 14 mm.

As to `COc1c(SC)c(CCN(C)C)c2sc3c(CCN(C)C)c(SC)c(OC)c(OC)c3ssc2c1OC` [LISSOCLINOTOXIN F], the figures for the IC50 in test [27], in test [28] and in test [29] were 4.2 µg/mL (≈ 6.97 µM), 230 nM and 280 nM, respectively.

In the case of `Cn1ncnc2c(=O)[nH]nc1-2`, the MIC in test [1] is 7 µg/mL (≈ 46.3 µM); in [30], 30 µM (≈ 4.53 µg/mL); in test [31] it was 30 µM (≈ 4.53 µg/mL); in test [11] it was 6 µg/mL (≈ 39.7 µM); in [32], 30 µM (≈ 4.53 µg/mL); in test [33] it was 20 µM (≈ 3.02 µg/mL). The minimal inhibitory concentration (MIC) was 8 µg/mL (≈ 52.9 µM) in test [34]; 1 to 2 µg/mL (≈ 6.62 to 13.2 µM) in test [35]; 12 µg/mL (≈ 79.4 µM) in [13]; 30 µM (≈ 4.53 µg/mL) in [36]; 20 µM (≈ 3.02 µg/mL) in test [37]; 5 µM (≈ 0.756 µg/mL) in test [38]. Also, the values for the MIC in test [39], in test [40] and in [41] were 1 to 2 µg/mL (≈ 6.62 to 13.2 µM), 1 to 2 µg/mL (≈ 6.62 to 13.2 µM) and 15 µM (≈ 2.27 µg/mL), respectively.

With `CC(C)CCCCC1=CN=CN2COC(=O)N12`, the EC50 in test [42] was found to be 0.76 µg/mL (≈ 3.2 µM); in [43], 0.7 µg/mL (≈ 2.95 µM); in test [44], 0.62 µg/mL (≈ 2.61 µM); in test [45], 0.36 µg/mL (≈ 1.52 µM); in [46] it was 0.6 µg/mL (≈ 2.53 µM).

Regarding `CN1CN2CCCN3CCCC(=N1)C32` (stereo not drawn), the IC50 in test [47] amounted to 6.8 µg/mL (≈ 35 µM).

In turn, `Nc1ncn([C@@H]2O[C@H](CO)[C@@H](O)[C@H]2O)c(=O)n1` [AZACITIDINE] came in with an IC50 in test [48] of 0.23 µg/mL (≈ 0.942 µM). This molecule also returned an MIC in [34] of 0.01 µg/mL (≈ 0.0409 µM).

Regarding `COc1c(O)cc(CCN)c2c1SSSSS2`, the MIC in test [49], in test [50], in [51], in test [52], in test [34] and in test [53] was 0.1 to 0.6 µg/mL (≈ 0.307 to 1.84 µM) throughout. The MIC in test [54] is 0.1 to 0.6 µg/mL (≈ 0.307 to 1.84 µM); in test [55] it was 0.1 to 0.6 µg/mL (≈ 0.307 to 1.84 µM); in test [15], 20 µg/mL (≈ 61.4 µM); in test [16], 40 µg/mL (≈ 123 µM). The midpoint of inhibition in test [56], the IC50, lay at 1 µg/mL (≈ 3.07 µM).

The record behind these values is ChEMBL document CHEMBL4265876, “Natural Products with Heteroatom-Rich Ring Systems” (J Nat Prod, 2017).
